Reference: US4959362A, “Pharmaceutical compositions containing certain ascorbic acid derivatives useful in the prophylaxis and treatment of disorders of the circulatory system” (Takeda Chemical Industries, Inc., priority 1983, dated 1990)

How the values were obtained:
[1] = Oxidation inhibitory activity: reduction of a stable free radical (DPPH); type: biochemical; details: for DPPH reducing activity compared with the test drug: FIG. 1
Protocol: Oxidation inhibitory activity determined with the use of a stable radical: In accordance with the method of M. S. Brois [Nature, 181, 1199, 1958], the activity to reduce a stable free radical, α,α-diphenyl-β-picryl hydrazyl (DPPH), was determined, which was used as an index of the oxidation inhibitory activity. […] Then, 20 minutes later, the absorbance at a wavelength of 517 nm was measured with the use of a spectrophotometer.

[2] = test system: lipid peroxide formation in rat brain tissue homogenate; assay: Inhibition of lipid peroxide formation in rat brain tissue homogenate (TBA method); type: biochemical, rat (male SD); details: 10^-5 M; for Inhibitory Effect (%) on lipid peroxide formation: n = 3, mean ± standard error, 37° C., 1 hour
Protocol: Activity to inhibit lipid peroxide formation in rat brain tissue homogenate:
Male SD rats (12-weeks old) were subjected to exsanguination under anesthesia with pentobarbital, then the brain was excised. The brain tissue was homogenized in a phosphate buffer solution (pH 7.4) to prepare a 5% homogenate. After incubation of the homogenate at 37° C. for 1 hour, the amount of lipid peroxides formed therein was determined by thiobarbituric acid (TBA) method in accordance with the report of Ohkawa et al. on Analytical Biochemistry 95 351, 1979.
The test drug was added to the 5% homogenate before incubation so as to make the final concentration be 10^-5 M. The activity to inhibit the formation of lipid peroxides was compared with that of the reference group to which was added the solvent (DMSO), and shown by % inhibition.

[3] = test system: renal disorders due to Fe^3+ -nitrilotriacetate (NTA); assay: Effects on renal disorders in rats due to Fe^3+ nitrilotriacetate (NTA); type: in vivo, rat (male SLC-Wistar); details: 30 mg/kg orally; for Body Weight / Kidney Weight / Occult Blood Test (positive animals/animals) / Protein in urine / Volume of urine: n = 6, last day of the experiment
Protocol: Effects to alleviate renal disorders in rats due to Fe^3+ nitrilotriacetate:
Male SLC-Wistar rats (4-weeks old, 64~85 g) were used. The animals were housed individually in metabolism cages and allowed free access to feed and water. Body weight, volume of urine and protein in urine (BIO-RAD method) were determined every day, and occult blood reaction was also examined (Labstick method). On the last day of the experiment, the kidney was excised and weighed.
The animals were orally administered once daily with test drugs or vehicles thereof (suspension in gum arabic), and, 40~60 minutes later, were injected intraperitoneally with nitrilotriacetate (NTA) or Fe^3+ -NTA. Fe^3+ -NTA was used in a form of mixture (1:4, molar ratio), and the dosages were 5 mg/kg in terms of Fe^3+ for 3 days and successively 10 mg/kg for 5 days.
Test drugs were compound (1-12), vitamin C and vitamin E, and the dosages were all 30 mg/kg.

[4] = test system: ventricular arrhythmias after coronary artery occlusion-reperfusion in rat hearts; assay: Inhibition of ventricular arrhythmias during coronary artery occlusion-reperfusion in rat hearts; type: in vivo, rat (male SD); details: for Extrasystole / Mortality (animals) / Mortality (percentage) / Ventricular fibrillation Incidence (animals) / Ventricular fibrillation Incidence (percentage) / Ventricular tachycardia Incidence (animals) / Ventricular tachycardia Incidence (percentage) / Ventricular fibrillation Duration / Ventricular tachycardia Duration / occurrence of ventricular arrhythmias: oral; for Ventricular fibrillation Duration / Ventricular tachycardia Duration: average ±SEM; for occurrence of ventricular arrhythmias: 20 and 50 mg/kg of compound (1-12), 50 mg/kg of vitamin C or E
Protocol: Action to inhibit ventricular arrhythmias occurred during coronary artery occlusion-reperfusion in rat hearts
Male SD rats (9~13 - weeks old, 250~370 g) were used. The animals were subjected to thoractonomy under artificial respiration while anesthesia was maintained by administering pentobarbital. […] By recording standard limb lead II electrocardiograms, occurrence of ventricular arrhythmias was examined.
The animals were administered, under non-anesthesia, with test drugs as a gum arabic suspension at the dosage of 30 mg/kg at the time of about 90 minutes and of 20 mg/kg at the time of about 45 minutes (total: 50 mg/kg), or at the dosage of 10 mg/kg each (total: 20 mg/kg) at the time of about 90 minutes and about 45 minutes prior to closure of the coronary artery. The results are shown in Table 4 in terms of the total amount of the dosage.
Incidences of ventricular fibrillation and ventricular tachycardia are shown by the percentage of the number of animals presenting the symptoms relative to the number of animals subjected to the test, and the duration of the symptoms was shown in average ±SEM by seconds. Extrasystole is shown by the number of systole/min, and the mortality is shown by the percentage of the number of animals killed relative to the number of animals subjected to the test.

[5] = test system: ischemic convulsive seizure (bilateral common carotid artery ligation); assay: Inhibition of ischemic seizure due to ligation of bilateral common carotid arteries in SHR rats; type: in vivo, rat (male SHR)
Protocol: Inhibition of ischemic seizure due to ligation of bilateral common carotid arteries in SHR rats
Male SHR rats (22-weeks old, about 360 g) were used. Under light anesthesia with ether, the animals were subjected to midline incision at the neck and the bilateral common carotid arteries were singled, then ligated to cause cerebral ischemia. […] The animals were orally administered with test drugs as a gum arabic suspension 60 minutes before the ligation of the bilateral common carotid arteries.

mice = assay: Acute toxicity in mice; type: in vivo; details: 300 and 1000 mg/kg orally
Protocol: Male Crj-ICR mice (4-weeks old, 21~26 g) were used. The animals, divided into groups, each consisting of six mice, were administered orally with compound (1-12) at the dosage of 300 or 1000 mg/kg. Then, each group was housed in a cage, and observed for 24 hours. The test drugs were suspended in gum arabic, and administered at the volume of 0.1 ml/10 g.

[6] = 100 mg/kg p.o., within 180 minutes

Molecule: Vitamin E [reference compound]
- DPPH reducing activity compared with the test drug [1]: activity equal to that of the test drug
- Inhibitory Effect (%) on lipid peroxide formation [2]: 44.9 ± 11.7%
- Effect on renal disorders [3]: substantially the same effects
- occult blood detection [3]: in more than half of the test animals, occult blood test was positive
- Body Weight [3]: 99.3 ± 2.3 g
- Kidney Weight [3]: 54.3 ± 2.7 mg
- Occult Blood Test (positive animals/animals) [3]: 4/6
- Protein in urine [3]: 6.3 ± 1.4 mg/day
- Volume of urine [3]: 9.0 ± 1.0 mL/day
- Extrasystole ([4]; 50 mg/kg total): 7.0 ± 4.1 systole/min
- Mortality (animals) ([4]; 50 mg/kg total): 1/10
- Mortality (percentage) ([4]; 50 mg/kg total): 10 percentage
- Ventricular fibrillation Incidence (animals) ([4]; 50 mg/kg total): 6/10
- Ventricular fibrillation Incidence (percentage) ([4]; 50 mg/kg total): 60 percentage
- Ventricular tachycardia Incidence (animals) ([4]; 50 mg/kg total): 7/10
- Ventricular tachycardia Incidence (percentage) ([4]; 50 mg/kg total): 70 percentage
- Ventricular fibrillation Duration ([4]; 50 mg/kg total): 43.4 ± 36.0 s
- Ventricular tachycardia Duration ([4]; 50 mg/kg total): 22.3 ± 9.7 s
- occurrence of ventricular arrhythmias [4]: no significant effects

Molecule: O=C1O[C@H]([C@@H](O)CO)C(O)=C1O [Vitamin C, ascorbic acid]
- DPPH reducing activity compared with the test drug [1]: activity equal to that of the test drug
- Activity on lipid peroxide formation [2]: promoted the formation of lipid peroxides remarkably
- Inhibitory Effect (%) on lipid peroxide formation [2]: -71.6 ± 36.8%
- Effect on renal disorders [3]: did not show significant effect for alleviating renal disorders
- Body Weight [3]: 89.2 ± 4.1 g
- Kidney Weight [3]: 64.5 ± 1.7 mg
- Occult Blood Test (positive animals/animals) [3]: 5/6
- Protein in urine [3]: 10.7 ± 2.4 mg/day
- Volume of urine [3]: 10.3 ± 1.7 mL/day
- Extrasystole ([4]; 50 mg/kg total): 5.1 ± 1.0 systole/min
- Mortality (animals) ([4]; 50 mg/kg total): 0/6
- Mortality (percentage) ([4]; 50 mg/kg total): 0 percentage
- Ventricular fibrillation Incidence (animals) ([4]; 50 mg/kg total): 6/6
- Ventricular fibrillation Incidence (percentage) ([4]; 50 mg/kg total): 100 percentage
- Ventricular tachycardia Incidence (animals) ([4]; 50 mg/kg total): 6/6
- Ventricular tachycardia Incidence (percentage) ([4]; 50 mg/kg total): 100 percentage
- Ventricular fibrillation Duration ([4]; 50 mg/kg total): 9.7 ± 2.5 s
- Ventricular tachycardia Duration ([4]; 50 mg/kg total): 19.0 ± 3.0 s
- occurrence of ventricular arrhythmias [4]: no significant effects

Molecule: CCCCCCCCCCCCCCCCCCOC1=C(O)[C@@H]([C@@H](O)CO)OC1=O [Compound (1-12), 2-O-octadecylascorbic acid]
- concentration at which DPPH is reduced in a manner dependent upon the amount used ([1]; 20 minutes, 0.1 mM DPPH ethanol solution, 517 nm): not less than 10^-5 M
- Activity on lipid peroxide formation [2]: higher activity
- Inhibitory Effect (%) on lipid peroxide formation [2]: 88.6 ± 6.8%
- Effect on renal disorders [3]: renal disorders were alleviated
- occult blood detection [3]: only in half of the test animals, occult blood was detected
- urine volume and urinary protein compared with vehicle [3]: significatly less
- weight of kidney compared with vehicle [3]: significantly less
- Body Weight [3]: 95.5 ± 3.0 g
- Kidney Weight [3]: 56.5 ± 2.0 mg
- Occult Blood Test (positive animals/animals) [3]: 3/6
- Protein in urine [3]: 8.1 ± 2.1 mg/day
- Volume of urine [3]: 7.4 ± 1.3 mL/day
- Extrasystole ([4]; 20 mg/kg total): 3.3 ± 0.8 systole/min
- Mortality (animals) ([4]; 20 mg/kg total): 1/17
- Mortality (percentage) ([4]; 20 mg/kg total): 6 percentage
- Ventricular fibrillation Incidence (animals) ([4]; 20 mg/kg total): 9/17
- Ventricular fibrillation Incidence (percentage) ([4]; 20 mg/kg total): 53 percentage
- Ventricular tachycardia Incidence (animals) ([4]; 20 mg/kg total): 11/17
- Ventricular tachycardia Incidence (percentage) ([4]; 20 mg/kg total): 65 percentage
- Ventricular fibrillation Duration ([4]; 20 mg/kg total): 31.0 ± 28.2 s
- Ventricular tachycardia Duration ([4]; 20 mg/kg total): 10.2 ± 3.2 s
- Extrasystole ([4]; 50 mg/kg total): 1.1 ± 0.3 systole/min
- Mortality (animals) ([4]; 50 mg/kg total): 0/9
- Mortality (percentage) ([4]; 50 mg/kg total): 0 percentage
- Ventricular fibrillation Incidence (animals) ([4]; 50 mg/kg total): 2/9
- Ventricular fibrillation Incidence (percentage) ([4]; 50 mg/kg total): 22 percentage
- Ventricular tachycardia Incidence (animals) ([4]; 50 mg/kg total): 2/9
- Ventricular tachycardia Incidence (percentage) ([4]; 50 mg/kg total): 22 percentage
- Ventricular fibrillation Duration ([4]; 50 mg/kg total): 1.2 ± 0.8 s
- Ventricular tachycardia Duration ([4]; 50 mg/kg total): 3.2 ± 2.6 s
- frequency of occasional PVCs ([4]; 20 and 50 mg/kg): less significantly
- mortality due to VF ([4]; 20 and 50 mg/kg): low
- period of time during which the symptom lasted ([4]; 20 and 50 mg/kg): shortened
- occurrence of ventricular arrhythmias [4]: suppressed significantly and depending on the dosages
- delay of appearance of the convulsion ([5]; 100 mg/kg orally, versus vehicle): about 40 minutes
- Ischemic convulsive seizure Time ([5]; 100 mg/kg p.o., n = 5): 199 min
- Ischemic convulsive seizure Incidence (%) [5, 6]: 20%
- Ischemic convulsive seizure Incidence (animals) [5, 6]: 1/5
- recovery from sedation and ptosis (mice): ≤ 3 h
- state observed (mice): the state of sedation and ptosis were observed
- lethality (mice; 24-hour-observation): no test animals of either group were killed
